Data: US10463639B2, “Compounds as modulators of a mutant CFTR protein and their use for treating diseases associated with CFTR protein malfunction” (INSTYTUT BIOCHEMII I BIOFIZYKI PAN, priority 2010, dated 2019)

Assays:
Assay type in all cases: cell-based
ΔF508-CFTR [1] = biological target: T1, ΔF508-CFTR (Homo sapiens, UniProt P13569, DEL508-508); assay: Whole cell patch-clamp recordings of cAMP-dependent chloride currents in HeLa cells; conditions: 24 h treatment, 1 μM (each), compared to controls
T1 construct: expressed in transfected cells; host or cells: HeLa cells, stably transfected (pTracer-based plasmid pTCF-F508del), provided by Pascale Fanen (Inserm U.468)
Experimental: Technique for patch-clamp recordings in the whole cell configuration has been described, such as in Hinzpeter, A. et al. Association between Hsp90 and the ClC-2 chloride channel upregulates channel function. American journal of physiology. Cell physiology 290, C45-56(2006) and Tanguy, G. et al. CSN5 binds to misfolded CFTR and promotes its degradation. Biochimica et biophysica acta 1783, 1189-99(2008). Stably transfected cells were plated in 35 mm cell culture plastic Petri dishes that were mounted on the stage of an inverted microscope. Patch-clamp experiments were performed at room temperature with an Axopatch 200A amplifier controlled by a computer via a digitdata 1440 interface (Axon Intruments, USA). Pipettes were pulled from hard glass (Kimax 51) using a Setter micropipette puller and their tips were fire-polished. Current recordings were performed using the nystatin-perforated patch clamp configuration. Nystatin stock solution (50 mg/ml) was prepared daily in DMSO. The stock solution was diluted (1:250) in the internal solution which was then sonicated during 1 minute. The internal solution contained the following (in mM): 131 NaCl, 2 MgCl2, and 10 Hepes-Na^+, pH 7.3, adjusted with NaOH. […]
Currents were recorded by application of regular voltage pulses of 60 mV amplitude during 1 second, from a holding potential of 0 mV, with an interval of 3 seconds. […]
When maximal stimulation was reached, cells were bathed with 5 μM of the specific CFTRinhibitor, CFTRinh-172, added to the CPT-cAMP solution. CFTR-currents were defined as the differences in current amplitudes recorded during maximum stimulation by CPT-cAMP and after inhibition by CFTRinh-172.
The activity of the different compounds was also evaluated in patch-clamp experiments. FIG. 6a summarizes the mean values of current amplitudes recorded at −60 mV in the different experimental conditions. CFTR-related current density (IΔF508-CFTR; pA/pF) is defined as cAMP-stimulated current minus the current recorded after inhibition by CFTR inh-172 at 5 μM, and normalized to cell capacitance. […]

ΔF508-CFTR [2] = biological target: T1, ΔF508-CFTR; assay: Iodide efflux (corrector effect) in ΔF508-CFTR HeLa cells after 24 hour pre-treatment; conditions: ΔF508-CFTR HeLa cells; for cAMP-stimulated radiolabel iodide efflux: 24 hour pre-treatment, compound at 1 μM
Experimental: Cultures were done at 37° C. in a humidified incubator with 5% CO2.
47(4): p. […] Marivingt-Mounir, C, et al., Synthesis, SAR, crystal structure, and biological evaluation of benzoquinoliziniums as activators of wild-type and mutant cystic fibrosis transmembrane conductance regulator channels. […] 47(4): p. […] After washing, cells were incubated with 1 ml of modified Earle's salt solution. After 1 min, the medium was removed to be counted and was quickly replaced by 1 ml of the same medium. This procedure was repeated every 1 min for 8 min. The first three aliquots were used to establish a stable baseline in efflux buffer alone. Medium containing cocktail aiming to increase intracellular cAMP (10 μM forskolin and 30 μM genistein) was used for next aliquots in order to activate CFTR chloride channels. At the end of the incubation, the medium was recovered, and cells were solubilized in 1 N NaOH. The radioactivity was determined using a g-counter (LKB).
t1 and t2 are successive time points.
Data are presented as the mean±S.E. of n separate experiments.
Differences were considered statistically significant using the Student's t test when the p value was less than 0.05.
To test drug correction of ΔF508-CFTR trafficking and function we evaluated halide permeability by a macroscopic assay using a robotic cell-based methodology using the I^− efflux technique. […]

ΔF508-CFTR [3] = biological target: T1, ΔF508-CFTR; assay: CFTR immunolocalization by confocal immunofluorescence in HeLa cells; conditions: 1 μM, 24 hours
Experimental: (c) Effects of the different compounds used at 1 μM on CFTR localization. Confocal imaging showing the plasma membrane localisation of WT-CFTR and intracellular localisation of ΔF508-CFTR. The effect of drugs is illustrated in panels c to f. Bars: […]. Arrows indicate staining of CFTR at the plasma membrane.
HeLa cells grown on glass coverslips were treated as above and as described in Lipecka, J. et al., Distribution of ClC-2 chloride channel in rat and human epithelial tissues. American journal of physiology. Cell physiology 282, C805-16(2002). Cells were fixed with 4% formaldehyde and permeabilized with 0.1% Triton in PBS. Cells were blocked with 1% bovine serum albumine in PBS/Triton and incubated at 4° C. overnight with the primary antibodies, 24-1 (1:300). After washing and blocking with 5% normal goat serum, cells were incubated with the secondary antibodies. Glass coverslips were mounted using the Vectashield mounting medium (Vector laboratories) and examined by confocal laser microscopy (Zeiss, LSM 510).

T1 sequence (P13569 with tags, fused parts or gaps DEL508-508): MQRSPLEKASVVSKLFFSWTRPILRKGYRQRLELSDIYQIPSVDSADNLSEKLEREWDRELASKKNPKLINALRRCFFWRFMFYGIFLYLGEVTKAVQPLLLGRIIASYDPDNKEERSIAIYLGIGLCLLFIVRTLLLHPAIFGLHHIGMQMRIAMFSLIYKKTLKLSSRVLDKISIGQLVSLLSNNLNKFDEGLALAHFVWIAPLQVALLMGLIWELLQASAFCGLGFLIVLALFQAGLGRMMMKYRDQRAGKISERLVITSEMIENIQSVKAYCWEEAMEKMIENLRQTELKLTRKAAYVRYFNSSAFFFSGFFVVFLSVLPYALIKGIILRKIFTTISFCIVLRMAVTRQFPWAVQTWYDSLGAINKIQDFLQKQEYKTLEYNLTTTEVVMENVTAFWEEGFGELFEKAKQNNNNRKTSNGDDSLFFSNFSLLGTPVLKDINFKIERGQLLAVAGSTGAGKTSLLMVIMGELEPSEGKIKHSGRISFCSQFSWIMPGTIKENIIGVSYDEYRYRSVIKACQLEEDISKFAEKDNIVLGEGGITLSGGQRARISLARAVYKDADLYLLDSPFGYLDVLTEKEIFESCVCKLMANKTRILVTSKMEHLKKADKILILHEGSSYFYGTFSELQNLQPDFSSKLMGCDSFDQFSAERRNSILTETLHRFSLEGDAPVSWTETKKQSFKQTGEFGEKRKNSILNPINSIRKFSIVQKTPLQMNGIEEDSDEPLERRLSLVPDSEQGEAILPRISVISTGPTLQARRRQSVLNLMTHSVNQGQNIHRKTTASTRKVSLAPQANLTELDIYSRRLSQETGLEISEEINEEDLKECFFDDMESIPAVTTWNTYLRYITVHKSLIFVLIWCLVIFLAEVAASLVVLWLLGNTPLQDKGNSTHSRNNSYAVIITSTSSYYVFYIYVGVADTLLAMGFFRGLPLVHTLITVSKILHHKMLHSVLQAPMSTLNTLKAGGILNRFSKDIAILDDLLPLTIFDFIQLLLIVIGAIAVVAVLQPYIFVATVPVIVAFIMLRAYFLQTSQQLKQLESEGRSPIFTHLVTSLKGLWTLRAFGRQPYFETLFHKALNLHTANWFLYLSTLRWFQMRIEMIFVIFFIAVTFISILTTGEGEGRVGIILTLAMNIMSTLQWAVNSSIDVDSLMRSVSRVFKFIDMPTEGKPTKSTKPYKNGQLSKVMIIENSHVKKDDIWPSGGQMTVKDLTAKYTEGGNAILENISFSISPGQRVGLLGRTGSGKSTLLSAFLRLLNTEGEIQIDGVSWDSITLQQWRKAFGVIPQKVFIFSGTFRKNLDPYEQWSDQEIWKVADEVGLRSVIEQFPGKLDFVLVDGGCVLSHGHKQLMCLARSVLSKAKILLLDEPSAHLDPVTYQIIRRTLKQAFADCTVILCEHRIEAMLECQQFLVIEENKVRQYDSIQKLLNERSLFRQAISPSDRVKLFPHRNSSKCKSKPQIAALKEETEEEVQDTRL

CFTR-related current density IΔF508-CFTR (current amplitude at −60 mV) (ΔF508-CFTR [1])	increase of the effect on iodide efflux when used at 10 μM (ΔF508-CFTR [2]; 10 μM compared with 1 μM)	cAMP-stimulated radiolabel iodide efflux (ΔF508-CFTR [2])	EC50 (ΔF508-CFTR [2]; wide range of concentrations)	EC50 (iodide efflux) (ΔF508-CFTR [2]; wide range of concentrations)	SMILES	stimulated efflux at 10 μM compared with WT-CFTR (ΔF508-CFTR [2]; 10 μM)	CFTR staining / plasma membrane localisation (ΔF508-CFTR [3])
did not increase current amplitude	3 fold	significant increase	10 µM		O=P(O)(CCP(=O)(O)c1ccccc1)c1ccccc1 [compound 407882, 2-[hydroxy(phenyl)phosphoryl]ethyl-phenylphosphinic acid]	comparable to the value observed for WT-CFTR	clear CFTR staining at or near the plasma membrane
did not increase current amplitude		significant increase		could not be precisely determined	O=c1nc(SCc2cccc([N+](=O)[O-])c2)[nH]c2nc[nH]c12 [compound 118208, 2-[(3-nitrophenyl)methylsulfanyl]-3,7-dihydropurin-6-one]		discrete punctuate staining at the plasma membrane was observed in a small fraction of cells
did not increase current amplitude		significant increase	0.844 µM		O=C(O)c1ccc(C(=O)O)c(C(=O)Nc2ccc3c(c2)Cc2ccccc2-3)c1 [compound 73100, 2-(9H-fluoren-2-ylcarbamoyl)terephthalic acid]		discrete punctuate staining at the plasma membrane was observed in a small fraction of cells
